Reference: patent publication US6818667B2, “Eurotinones, and derivatives thereof, processes for preparing them, and their use” (Aventis Pharma Deutschland GmbH, priority 2001, dated 2004)

The compounds below were run against KDR kinase (VEGF receptor) (Homo sapiens, UniProt P35968) (assay: KDR kinase activity assay (FlashPlate, 33P-ATP phosphorylation of peptide substrate PLCγ1)). Settings: purified enzyme, 5 μM cold ATP, pH 7.4, RT 1 h.
KDR kinase (VEGF receptor), sequence (P35968 20-1356): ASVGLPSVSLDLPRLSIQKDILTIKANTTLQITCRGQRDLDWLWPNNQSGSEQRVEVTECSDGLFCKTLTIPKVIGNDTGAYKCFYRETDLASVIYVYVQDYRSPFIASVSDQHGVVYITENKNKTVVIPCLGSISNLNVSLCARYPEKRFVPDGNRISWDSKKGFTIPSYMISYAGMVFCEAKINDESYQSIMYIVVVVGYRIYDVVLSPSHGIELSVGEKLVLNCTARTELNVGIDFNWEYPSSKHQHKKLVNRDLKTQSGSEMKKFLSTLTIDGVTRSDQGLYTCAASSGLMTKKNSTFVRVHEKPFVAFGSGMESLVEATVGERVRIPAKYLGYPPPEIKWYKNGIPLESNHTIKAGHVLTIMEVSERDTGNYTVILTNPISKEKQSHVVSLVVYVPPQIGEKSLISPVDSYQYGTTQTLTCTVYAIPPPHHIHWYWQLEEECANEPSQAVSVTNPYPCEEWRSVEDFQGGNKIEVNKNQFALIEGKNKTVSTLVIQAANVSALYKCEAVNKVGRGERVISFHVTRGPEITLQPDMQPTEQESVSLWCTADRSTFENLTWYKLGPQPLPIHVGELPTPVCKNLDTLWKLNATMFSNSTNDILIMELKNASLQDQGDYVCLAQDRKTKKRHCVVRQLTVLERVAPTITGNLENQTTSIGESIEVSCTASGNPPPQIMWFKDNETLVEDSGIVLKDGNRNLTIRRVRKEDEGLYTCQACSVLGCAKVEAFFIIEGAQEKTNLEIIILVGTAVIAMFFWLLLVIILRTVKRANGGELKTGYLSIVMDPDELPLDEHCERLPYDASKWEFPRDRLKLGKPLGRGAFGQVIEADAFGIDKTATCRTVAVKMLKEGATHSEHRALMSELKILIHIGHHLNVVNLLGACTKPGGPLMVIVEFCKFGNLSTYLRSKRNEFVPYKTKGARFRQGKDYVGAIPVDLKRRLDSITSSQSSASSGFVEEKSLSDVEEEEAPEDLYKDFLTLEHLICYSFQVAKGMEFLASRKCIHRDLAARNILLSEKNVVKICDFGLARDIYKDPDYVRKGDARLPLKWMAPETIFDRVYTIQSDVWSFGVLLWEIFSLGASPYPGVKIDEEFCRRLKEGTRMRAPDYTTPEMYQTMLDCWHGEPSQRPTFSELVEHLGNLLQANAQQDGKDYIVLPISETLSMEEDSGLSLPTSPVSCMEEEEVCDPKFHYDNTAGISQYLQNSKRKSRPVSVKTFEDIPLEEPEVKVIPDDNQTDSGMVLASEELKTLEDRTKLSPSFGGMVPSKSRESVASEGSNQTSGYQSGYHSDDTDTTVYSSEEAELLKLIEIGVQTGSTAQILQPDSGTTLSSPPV
Format: biochemical
Method: The tyrosine kinase receptor KDR is the test target. KDR plays a key role in the growth of endothelium and in angiogenesis and is consequently also involved in the development of tumors. KDR is consequently an important therapeutic target molecule for cancer diseases and other proliferative diseases. In the test, the activity of the KDR kinase is measured on the basis of the phosphorylation of a specific peptide substrate.
The KDR kinase was determined using purified enzyme in 384-well microtiter plates (Coated FlashPlates, NEN Life Science). The enzyme activities were determined by means of phosphorylating a specific peptide substrate. A previously prepared series of dilutions of the eurotinones having concentrations of 100, 50, 25, 12.5, 6.25, 3.125, 1.5625, 0.7813, 0.3906, 0.195, 0.094, 0.047 and 0 μM were pipetted, in the corresponding order, into the experimental assays. The reaction mixture (radioactively labeled ATP, buffer solution at pH 7.4 and enzyme solutions) was then added and the whole was incubated at RT for 1 h.
Enzyme: KDR kinase (VEGF receptor)
50 mM MOPS, pH7.4, 10 mM MgCl2, 2 mM DTT, 2.5 mM EDTA,
ATP solution: 25μCi of ^33P-γ-ATP/ml and 12.5 μM cold ATP
KDR enzyme solution: 3.5 μg/ml in kinase buffer
384-well FlashPlates were coated, at […] and overnight, with 60 μl (1.2 μg/well) of the peptide substrate and then washed 3×with in each case 80 μl of PBS. The plates which had been coated in this way can be stored for a relatively short time at 4° C. and for a longer period at −20° C. […]
The plates were subsequently washed three times with 75 μl of washing solution in each case and the radioactivity is measured over 30 seconds in a MicroBeta counter (Wallac). […]
The activity of the KDR kinase was measured by way of the incorporation of radioactive phosphate from ATP into the substrate, and the inhibitory effect of the eurotinone (IC50) was calculated from this incorporation.
The inhibition was calculated as: […]
`COc1cc(O)cc2c1OC(=O)c1c(OC)cc(C)c(O)c1C2` [2,12-dimethyleurotinone (compound 2), 2,12-dimethyleurotinone] gave an IC50 of 155 µM.
With `COc1cc(O)cc2c1OC(=O)c1c(O)cc(C)c(O)c1C2` [2-methyleurotinone (compound 3), 2-methyleurotinone] the IC50 was 18 µM.
Work on `Cc1cc(O)c2c(c1O)Cc1cc(O)cc(O)c1OC2=O` [eurotinone (compound 1), eurotinone] yielded an IC50 of 22 µM.
